Measured values taken from patent US20220305020A1, “THE USE OF PARAXANTHINE TO REDUCE EXERCISE-INDUCED MENTAL FATIGUE” (Ingenious Ingredients, LP, priority 2021, published 2022).

What was measured:
trained runners [1] = test: Berg-Wisconsin Card Sorting Test (BCST) before and after a mentally fatiguing 10-km run; format: in vivo, human; settings: 200 mg oral; after 10-km run compared to pre-exhaustive exercise
Description: (§1) Trained runners from local running and triathlon clubs and races were recruited to participate in this study. Cognitive performance was assessed prior and after a mentally fatiguing endurance run. Eligibility criteria included healthy trained runners or triathletes between 18-40 years of age, current (>6 months) history of run training, and documented evidence that they averaged 8 minute/mile or less running pace during a recent competition (e.g., completing a 5-km road race or marathon). Qualified runners were invited to attend a familiarization session which provided an overview of the study and participants informed consent to participate in the study. A total of 32 individuals responded to study advertisements and were assessed for eligibility, 28 completed a familiarization session, 13 met eligibility requirements, agreed to participant in the study and were randomized into treatments. 1 subject dropped out of the study due to not complying with the study protocol. 12 subjects (11 males, 1 female) ultimately finished the trial. Volunteers visited the lab a total of five times including one familiarization session and four experimental sessions. During the familiarization session, participants were explained the study protocol, provided informed consent, answered a medical questionnaire, and had height, weight, resting heart rate, and resting blood pressure. Males then had body composition determined using dual energy X-ray absorptiometry (DXA) while females took a urine pregnancy test prior to the DXA scan to verify they were not pregnant. Participants then took each cognitive function test three times to familiarize them to the tests and establish test reliability. Volunteers practiced running on the treadmill to be used in the study at race pace. Once completed, the participants then performed a graded maximal cardiopulmonary (VO2 peak) treadmill test to determine peak heart rate and aerobic capacity. Participants were also asked to maintain usual eating habits and avoid new dietary supplements for the duration of the study. Participants were also asked to prepare for each testing session as they would a 10-km road race and refrain from vigorous physical activity, alcohol intake, and over-the-counter medications for 24 hours as well as fast for 8-12 hours prior to reporting to the lab. […] Upon arriving at the lab, participants had weight, resting heart rate, and blood pressure determined. Participants then completed a side effects questionnaire, performed two cognitive function tests, the Psychomotor Vigilance Task Test (PVTT), a test that objectively assesses fatigue-related changes in alertness, and the Berg-Wisconsin Card Sorting Test (BCST), donated a fasting blood sample, and then ingested 1 of 4 randomly assigned oral supplements (PRE). Supplements were administered in a double blind, randomized, and crossover manner using a Balanced Latin Square method to counterbalance the order of treatment administration. Treatments included (1) 400 mg of placebo (PL, wheat flour, Shandong Bailong Chuangyuan Bio-tec Co. Ltd., Dezhou, China); (2) 200 mg of PL+200 mg of Caffeine (CSPC Innovation Pharmaceutical Co. Ltd., Shi Jiazhuang, China); (3) 200 mg of PL+200 mg of […], Ingenious Ingredients, L.P. Lewisville, Tex., USA) or (4) 200 mg CA+200 mg of PX (CA+PX). Supplements were prepared using good manufacturing practices and certified for content. Supplements were the same size and appearance and packaged in generically labeled bottles for administration in a double-blind manner. Participants ingested one capsule with 8-ounces of water of the assigned treatment. Participants then rested for 15-minutes and repeated these tests. Volunteers then performed a 10-km run at their self-determined pace. Heart rate was obtained every kilometer during the run. Once completed, participants donated a venous blood sample. Participants then completed the cognitive function tests and the side effects questionnaire. […]

Male, 51 = test: Uchida-Kraepelin test (UKT), serial calculation test of mental fatigue; format: in vivo, human; settings: one subject; for increase of mean performance during the first 15-minutes of UKT / mental fatigue (gradual decrease in performance) during the second 15-minutes of UKT: 200 mg of paraxanthine or 200 ng of caffeine
Description: […], consumed 200 mg of paraxanthine or […] or placebo, separated by one-week wash-out, prior to performing a serial calculation test, the Uchida-Kraepelin test (UKT), that is designed to measure mental fatigue. The test has been standardized and is widely used in clinical psychology, psychiatry, and occupational mental health practice. In this test, a subject is instructed to perform serial calculation of random numbers printed on a paper for 15 minutes. After a 5-minute rest, another 15 minutes of calculations are performed. The test subject is instructed to compute as many calculations as possible. Performance is assessed by 1-minute intervals.

trained runners [2] = test: Psychomotor Vigilance Task Test (PVTT) before and after a mentally fatiguing 10-km run; format: in vivo, human
Description: as §1

BDNF = BDNF levels in young and old rats after paraxanthine supplementation; format: in vivo
catalase = test: Catalase levels in young and old rats after paraxanthine supplementation; format: in vivo
glutathione = test: Glutathione levels in young and old rats after paraxanthine supplementation; format: in vivo
[3] = 200 mg oral, compared to pre-exhaustive exercise
[4] = old rats, high-dose paraxanthine group
[5] = old rats, low-dose paraxanthine group
[6] = young rats, high-dose paraxanthine group
[7] = young rats, low-dose paraxanthine group

Cn1c(=O)c2c(ncn2C)n(C)c1=O [caffeine, reference compound]
increase in number of correct responses in the BCST (trained runners [1]): did not change | increase in number of errors in the BCST (trained runners [1]): 19.4% | increase in number of preservative errors (PAR rules) in the BCST (trained runners [1]): 23.3% | increase in number of preservative errors in the BCST (trained runners [1]): 15.9% | increase of mean performance during the first 15-minutes of UKT (Male, 51): 7% | mental fatigue (gradual decrease in performance) during the second 15-minutes of UKT (Male, 51): failed to prevent metal fatigue

Cn1c(=O)[nH]c2ncn(C)c2c1=O [paraxanthine]
increase in number of correct responses in the BCST (trained runners [1]): 5.7% | reduction in number of errors in the BCST (trained runners [1]): 1.5% | reduction in number of preservative errors (PAR rules) in the BCST (trained runners [1]): 10.6% | reduction in number of preservative errors in the BCST (trained runners [1]): 4.6% | greater improvement in reaction time compared to caffeine, trial 2 (trained runners [2]; 200 mg oral each, PVTT): 25% | greater improvement in reaction time compared to caffeine, trial 10 (trained runners [2]; 200 mg oral each, PVTT): 44% | greater improvement in reaction time compared to caffeine, trial 20 (trained runners [2]; 200 mg oral each, PVTT): 12% | improvement of reaction time in the PVT Test, early trials (trial 2) (trained runners [2]; [3]): 7.3% | improvement of reaction time in the PVT Test, late trials (trial 20) (trained runners [2]; [3]): 10.9% | improvement of reaction time in the PVT Test, middle trials (trial 10) (trained runners [2]; [3]): 10.9% | increase of mean performance during the first 15-minutes of UKT (Male, 51): 15% | mental fatigue (gradual decrease in performance) during the second 15-minutes of UKT (Male, 51): prevented mental fatigue | increase of mean performance during the second 15-minutes of UKT (Male, 51; 200 mg of paraxanthine): 21% | BDNF levels (BDNF; [4]): 863.40 ± 35.21 pg/mL | BDNF levels (BDNF; [5]): 776.40 ± 18.54 pg/mL | BDNF levels (BDNF; [6]): 939.15 ± 42.34 pg/mL | BDNF levels (BDNF; [7]): 828.05 ± 35.03 pg/mL | catalase levels (catalase; [4]): 36.84±1.68 U/mL | catalase levels (catalase; [5]): 29.34±1.50 U/mL | catalase levels (catalase; [6]): 38.91±2.65 U/mL | catalase levels (catalase; [7]): 30.24±1.58 U/mL | glutathione levels (glutathione; [4]): 27.49 ± 0.84 µg/mL | glutathione levels (glutathione; [5]): 22.27 ± 1.00 µg/mL | glutathione levels (glutathione; [6]): 34.41 ± 1.97 µg/mL | glutathione levels (glutathione; [7]): 24.04 ± 1.74 µg/mL
